Measured values: PMC10786919, “Design-rules for stapled peptides with in vivo activity and their application to Mdm2/X antagonists” (Nature Communications, 2024)
Values after ≈ are worked out from the molar mass of the structure shown. Like-named read-outs stand apart in the source and are kept apart here. Positions of bridges follow the written chain, without caps; N, C: chain ends. Non-standard residues stand in square brackets, D forms with d. Residues, ends and D or L forms follow the SMILES beside them. Lys(N3) = [N-]=[N+]=NCCCC[C@H](N)C(=O)O; R8 = C=CCCCCCC[C@@](C)(N)C(=O)O; Cba = N[C@@H](CC1CCC1)C(=O)O; S5 = C=CCCC[C@](C)(N)C(=O)O; βAla = NCCC(=O)O

Columns and labels:
[1] = system: p53 responsive β-lactamase reporter in HCT116 cells; test: cells; type: cell-based
Outline: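 HCT116 cells stably carrying a p53-responsive β-lactamase reporter, seeded at 8000 cells/well, with 0.5% DMSO final. Reporter activity read by ToxBLAzer Dual Screen. Values are geometric means of at least three biological replicates.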

[2] = Lactate dehydrogenase (LDH) release assay; type: cell-based
Outline: (§1)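 HCT116 cells stably carrying a p53-responsive β-lactamase reporter were seeded at 8000 cells per well with a final DMSO level of 0.5%. Membrane integrity was assessed by lactate dehydrogenase release using a homogeneous fluorometric kit. Values are geometric means of at least three biological replicates.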

[3] = system: HCT116 cells; test: Lactate dehydrogenase (LDH) release assay; type: cell-based
Outline: as §1

[4] = system: Jump-In T-REx CHO-K1 BLA cells; test: cells; type: cell-based; conditions: for EC50: read-out: TETCHO: Counterscreen EC50
[5] = Solubility assay (kinetic solubility, PBS pH 7); type: physicochemical; conditions: for solubility kinetic: read-out: Solubility
Outline: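 Values derive from peak-area ratios of sample versus a 100 µM standard, scaled by that standard's concentration.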

[6] = in vitro; conditions: Nanoclick permeability assay EC50
Outline: (§2)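 Azido-peptide permeability was read as loss of NanoBRET signal (donor 450 nm, acceptor 610 nm) after adding NanoBret618-azide at 10 μM final.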

[7] = system: cells transiently transfected with the NanoLuc-HaloTag vector; test: Nanoclick permeability assay; conditions: 4Hr
Outline: as §2

[8] = EPSA; type: physicochemical
[9] = Experimental LogD (partition coefficient); conditions: for logD: not stated, Partition Coeff LogD
[10] = target: T1, human Mdm2 1–125 (Homo sapiens, UniProt Q00987); test: Mdm2 binding by competitive fluorescence anisotropy assay (FP binding); conditions: read-out: FP binding assay KD
T1 construct: GST (N); His6 (internal); TEV cleavage site (ENLYFQG) (internal); made in house; host or cells: BL21 (DE3) Rosetta T1R Escherichia coli
Source text: The TEV (tobacco etch virus) cleavage site was changed from ENLYFQS to ENLYFQG to give a fusion protein with the following sequence:
[P] is the protein concentration (Mdm2), [L] is the labeled peptide concentration, r is the anisotropy measured, r0 is the anisotropy of the free peptide, rb is the anisotropy of the Mdm2–FAM-labeled peptide complex, Kd is the dissociation constant, [L]t is the total FAM labeled peptide concentration, and [P]t is the total Mdm2 concentration. […] This value was then used to determine apparent Kd values of the respective competing ligands in subsequent competition assays in fluorescence anisotropy experiments.
The competing molecules were then titrated against the complex of the FAM-labeled peptide and protein. Apparent Kd values were determined by fitting the experimental data to equations shown below:2 r=ro+(rb−ro)×2(d^2−3e)cos(θ/3)−9/3Kd1+2(d^2−3e)cos(θ/3)−d 3 d=Kd1+Kd2+[L]st+[L]t−Pt 4 e=Lt−PtKd1+Lst+PtKd2+Kd1Kd2 5 f=−Kd1Kd2[P]t 6 θ=arcos−2d^3+9de−27f/2(d^2−3e)^3
[L]st and [L]t denote labeled ligand and total unlabeled ligand input concentrations, respectively. Kd2 is the dissociation constant of the interaction between the unlabeled ligand and the protein. In all competition experiments, it is assumed that [P]t > [L]st, otherwise considerable amounts of free labeled ligand would always be present and would interfere with measurements. […] The FAM-labeled peptide was dissolved in dimethyl sulfoxide (DMSO) at 1 mM and diluted into experimental buffer. Readings were carried out with an Envision Multilabel Reader (PerkinElmer). […] Curve-fitting was carried out using Prism 4.0 (GraphPad). […] Negative control titrations of the ligands under investigation were also carried out with the fluorescently labeled peptide (in the absence of Mdm2) to ensure no interactions were occurring between the ligands and the FAM-labeled peptide. […] Measurements were taken a minimum of three times (biological replicates) and values are reported as geometric means of the replicates.

[11] = system: Ca Ski cell line; conditions: Ca Ski
Outline: (§3)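 Compound dilution series (10 points, 3-fold, 10 mM top stock in DMSO) tested on overnight-plated Ca Ski cells in RPMI1640/10% FBS and on blasticidin-selected p53RE-bla HCT-116 cells in McCoy's 5A; read-out was CellTiter-Glo 2.0 luminescence after room-temperature equilibration.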

[12] = system: CellSensor p53RE-bla HCT-116 Cell Line; conditions: read-out: Proliferation EC50 HCT116 (On-target); HCT116
Outline: as §3

[13] = 0% FBS 4Hr, read-out: p53 reporter assay: EC50
[14] = 10% FBS 4Hr, read-out: p53 reporter assay: EC50
[15] = 10% FBS 16Hr, read-out: p53 reporter assay: EC50
[16] = pH 7, aqueous buffer, kinetic from dmso stock, pH 7, PBS

T1 sequence (Q00987 with tags, fused parts or gaps): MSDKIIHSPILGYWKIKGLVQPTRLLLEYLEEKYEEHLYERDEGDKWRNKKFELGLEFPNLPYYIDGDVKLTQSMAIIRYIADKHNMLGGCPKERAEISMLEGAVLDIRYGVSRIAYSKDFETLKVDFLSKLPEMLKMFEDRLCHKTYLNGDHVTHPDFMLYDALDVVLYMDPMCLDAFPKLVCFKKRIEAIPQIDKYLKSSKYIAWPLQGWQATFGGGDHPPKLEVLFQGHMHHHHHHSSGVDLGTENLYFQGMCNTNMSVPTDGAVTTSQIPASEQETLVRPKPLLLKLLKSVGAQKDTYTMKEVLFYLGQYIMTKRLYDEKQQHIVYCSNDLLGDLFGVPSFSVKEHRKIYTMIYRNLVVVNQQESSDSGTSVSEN

SMILES	p53 reporter assay: % Effect ([1]; 0% FBS 4Hr) [%]	EC50 [1, 13] [µM]	p53 reporter assay: % Effect ([1]; 10% FBS 4Hr) [%]	EC50 [1, 14] [µM]	p53 reporter assay: % Effect ([1]; 10% FBS 16Hr) [%]	EC50 [1, 15] [µM]	EC50 ([2]; LDH: Cytotoxicity assay: EC50) [µM]	EC50 [3] [µM]	TETCHO: Counterscreen % Effect ([4]; 0% FBS 4Hr) [%]	EC50 ([4]; 0% FBS 4Hr) [µM]	TETCHO: Counterscreen % Effect ([4]; 10% FBS 4Hr) [%]	EC50 ([4]; 10% FBS 4Hr) [µM]	TETCHO: Counterscreen % Effect ([4]; 10% FBS 16Hr) [%]	EC50 ([4]; 10% FBS 16Hr) [µM]	solubility kinetic [5, 16] [µM]	cell entry EC50 [6] [µM]	Nanoclick permeability assay % Effect [7] [%]	logD [9]	Kd [10] [µM]	TETCHO: Counterscreen % Effect ([4]; 0% FBS 16Hr) [%]	other results
CC(=O)N[C@H](C(=O)N[C@@H](CO)C(=O)N[C@@H](Cc1ccccc1)C(=O)N[C@]1(C)CCCCCCC=CCCC[C@@](C)(C(N)=O)NC(=O)[C@H](CC(C)C)NC(=O)[C@H](CC(C)C)NC(=O)[C@H](C)NC(=O)[C@H](Cc2c[nH]c3ccccc23)NC(=O)[C@H](Cc2ccc(O)cc2)NC(=O)[C@H](CCC(=O)O)NC1=O)[C@@H](C)O [MP-090]	110.7	6.5	88.51	26.2	4.432	> 50.4	> 50.7	50.5	137.4	21.2	106.1	31.5	108.5	32.9	77 (≈ 113 µg/mL)	> 10	42.09	2.69			EPSA ([8]; EPSA): 201 A^2
CC(=O)N[C@@H](CCCCN)C(=O)NCCCCCC(=O)N[C@H](C(=O)N[C@@H](CO)C(=O)N[C@@H](Cc1ccccc1)C(=O)N[C@]1(C)CCCCCCC=CCCC[C@@](C)(C(N)=O)NC(=O)[C@H](CC(C)C)NC(=O)[C@H](CC(C)C)NC(=O)[C@H](C)NC(=O)[C@H](Cc2c[nH]c3ccccc23)NC(=O)[C@H](Cc2ccc(O)cc2)NC(=O)[C@H](CCC(=O)O)NC1=O)[C@@H](C)O [MP-716]	93.75	14.1	161.5	15.9	18.31	> 50.4	> 50.7		43.21	> 50.4	45.82	> 50.4	13.83	> 50.4		> 10	9.756		0.011		Solubility ([5]; pH 7, PBS): Poorly Behaved; Partition Coeff LogD [9]: Poorly Behaved
CC(=O)N[C@@H](CCCCN=[N+]=[N-])C(=O)NCCC(=O)N[C@@H](CC(C)C)C(=O)N[C@H](C(=O)N[C@@H](Cc1ccccc1)C(=O)N[C@]1(C)CCCCCCC=CCCC[C@@](C)(C(=O)N[C@@H](CCC(=O)O)C(=O)N[C@@H](C)C(=O)N[C@@H](C)C(=O)N[C@@H](C)C(=O)N[C@@H](C)C(=O)N[C@H](C)C(N)=O)NC(=O)[C@H](CC2CCC2)NC(=O)[C@H](CCC(N)=O)NC(=O)[C@H](C)NC(=O)[C@H](Cc2c[nH]c3ccccc23)NC(=O)[C@H](Cc2ccc(O)cc2)NC(=O)[C@H](CCC(=O)O)NC1=O)[C@@H](C)O [MP-834, Ac-K(N3)-(betaAla)-LTF-(R8)-EYWAQ-(Cba)-(S5)-EAAAA-(D-Ala)-NH2] (Ac-[Lys(N3)][βAla]LTF[R8]EYWAQ[Cba][S5]EAAAA[dA]-NH2; staple 6-13)									-4.911				-13.19				121.4			-7.249	p53 reporter assay % Effect ([1]; 0% FBS 4Hr): 103.2%; p53 reporter assay % Effect ([1]; 10% FBS 16Hr): 95.7%; EC50 ([1]; read-out: Cell EC50 (4 hr, 0% FBS), p53 reporter assay, 4 hr, 0% FBS): 1 µM; EC50 ([1]; read-out: Cell EC50 (16 hr, 10% FBS), p53 reporter assay, 16 hr, 10% FBS): 3.4 µM; LDH: Cytotoxicity assay % Effect ([3]; 0% FBS 4Hr): 6.58%; LDH: Cytotoxicity assay % Effect ([3]; 10% FBS 16Hr): 9.756%; solubility kinetic [5]: 167 µM (≈ 372 µg/mL); Proliferation % inhibition at 50 µM Ca Ski ([11]; 50 µM): -3.2%; EC50 ([11]; read-out: Proliferation EC50 Ca Ski (Off-target)): > 49.8 µM; EC50 [12]: 1.4 µM
CC(C)C[C@H](NC(=O)CCNC(=O)[C@H](CCCCN=[N+]=[N-])NC(=O)CNC(=O)[C@H](CC(=O)O)NC(=O)[C@H](CC(C)C)NC(=O)[C@H](CCCCN)NC(=O)[C@@H](NC(=O)[C@H](CCCNC(=N)N)NC(=O)[C@H](CCCCN)NC(=O)[C@H](C)NC(=O)[C@H](C)NC(=O)[C@@H]1CCCN1)C(C)C)C(=O)N[C@H](C(=O)N[C@@H](Cc1ccccc1)C(=O)N[C@]1(C)CCCCCCC=CCCC[C@@](C)(C(=O)N[C@@H](CO)C(=O)N[C@@H](C)C(=O)N[C@@H](C)C(N)=O)NC(=O)[C@H](CC2CCC2)NC(=O)[C@H](CCC(N)=O)NC(=O)[C@H](C)NC(=O)[C@H](Cc2c[nH]c3ccccc23)NC(=O)[C@H](Cc2ccc(O)cc2)NC(=O)[C@H](CCC(=O)O)NC1=O)[C@@H](C)O [MP-879] (H-PAAKRVKLDG[Lys(N3)][βAla]LTF[R8]EYWAQ[Cba][S5]SAA-NH2; staple 16-23)									42.86	35.8					162 (≈ 480 µg/mL)	0.555	134.8	2.38	0.0386	28.78	EC50 ([1]; 0% FBS 4Hr, read-out: p53 reporter assay EC50): 2.4 µM; EC50 ([1]; 0% FBS 16Hr, read-out: p53 reporter assay EC50): 1.14 µM; EC50 ([2]; LDH: Cytotoxicity assay EC50): > 50 µM; EC50 ([4]; 0% FBS 16Hr): > 50 µM
CC(=O)N[C@@H](CCCCN)C(=O)NCCCCCC(=O)N[C@H](C(=O)N[C@@H](CO)C(=O)N[C@@H](Cc1ccccc1)C(=O)N[C@]1(C)CCCCCCC=CCCC[C@@](C)(C(=O)N[C@@H](CCC(=O)O)C(=O)N[C@@H](CC(N)=O)C(=O)N[C@@H](Cc2ccccc2)C(N)=O)NC(=O)[C@H](CC(C)C)NC(=O)[C@H](CC(C)C)NC(=O)[C@H](C)NC(=O)[C@H](Cc2c[nH]c3ccccc23)NC(=O)[C@H](Cc2ccc(O)cc2)NC(=O)[C@H](CCC(=O)O)NC1=O)[C@@H](C)O [MP-82094]	109.5	1.55	125.5	3.92	78.69	16.1		50.5	52.98	45.8	49.08	20	82.5	7.15			69.87				EPSA [8]: Poorly Behaved
